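Interpolation was linear, between the two tested concentrations surrounding the appropriate level; five concentrations were tested over 48 hours in 96-well plates. The concentration for full growth arrest is given as TGI.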
Key:
Test in all cases: NCI tumour cell line growth inhibition, 48 h
T-47D breast = system: T-47D breast
XF 498 CNS = system: XF 498 CNS
DMS 114 small cell lung = system: DMS 114 small cell lung
HOP-18 NSCLC = system: HOP-18 NSCLC
LXFL 529 NSCLC = system: LXFL 529 NSCLC
SNB-78 CNS = system: SNB-78 CNS
MDA-N = system: MDA-N
M19-MEL melanoma = system: M19-MEL melanoma
SN12K1 renal = system: SN12K1 renal
P388 leukemia = system: P388 leukemia

Compound | TGI (T-47D breast) [µM] | TGI (XF 498 CNS) [µM] | TGI (DMS 114 small cell lung) [µM] | TGI (HOP-18 NSCLC) [µM] | TGI (LXFL 529 NSCLC) [µM] | TGI (MDA-N) [µM] | TGI (M19-MEL melanoma) [µM] | also measured
C/C(=N/NC(=O)c1ccncc1)C(F)(F)F | > 100 |  |  |  |  |  |  | 
CC(=O)CCC#Cc1ccccc1C(=O)C(C)=[N+]=[N-] |  | 89.3 | 42 | > 100 |  |  |  | 
COc1ccc(-c2cc(N3CCN(c4ccc(Cl)cc4)CC3)c(C#N)c(=O)o2)cc1 |  | 7.76 | 25.6 | 44.3 | 70.5 |  |  | TGI (SNB-78 CNS): 34.2 µM
COC(=O)/C=C1\SC2(OC1=Nc1ccccc1)C1CC3CC(C1)CC2C3 (stereo not given) |  |  |  |  |  | > 100 |  | 
O=C(O)C(Cc1cc(I)c(O)c(I)c1)C1CCCCC1 (stereo not given) | > 100 |  |  |  |  | > 100 |  | 
CC(C)(C)[Si](C)(C)OCC1OC(n2cnc3c(N)ncnc32)C2OC(=S)OC12 (stereo not given) |  |  |  |  |  | 94 |  | 
O=C1c2cc(Br)ccc2-c2ccc3c4ccc5c6c(ccc(c7ccc1c2c73)c64)C(=O)c1cc(Br)ccc1-5 | > 100 |  |  |  |  |  |  | 
CCOC(=O)CC1=N/C(=N/C(=N)N[N+](=O)[O-])SC1 |  |  |  | > 100 | > 100 |  | > 100 | TGI (SNB-78 CNS): > 100 µM
NCCCCCC(CCN)SCC1OC(n2cnc3c(N)ncnc32)C(O)C1O (stereo not given) |  | > 15 | > 1500 |  |  |  | > 1500 | TGI (SN12K1 renal): > 1500 µM; TGI (P388 leukemia): > 1500 µM; TGI (SNB-78 CNS): > 1500 µM
COc1cccc2c1C(=O)c1c(O)c3c(c(O)c1C2=O)C[C@@](O)(C(=O)CO)CC3OC1CC(N(C)CCOCC(OC(C)=O)OC(C)=O)C(O)C(C)O1 (stereo not given in full) |  | > 0.01 | > 0.01 | > 0.01 | > 0.01 |  | > 0.01 | 
Fc1ccc(Nc2nc(Cl)c3[nH]cnc3n2)cc1Cl | > 100 |  |  |  |  | > 100 |  | 
Nc1ccccc1N |  |  |  | > 100 | > 100 |  | > 100 | 
CN1C2CCC1/C(=C/c1cccc3c1OCO3)C(=O)/C2=C\c1cccc2c1OCO2 |  | > 100 | > 100 |  | > 100 |  | > 100 | 
NC(Cc1ccc(CP(=O)(O)O)cc1)C(=O)O (stereo not given) | > 100 |  |  |  |  | > 100 |  | 

Reference: PubChem BioAssay (NCI)
